≈ marks a conversion by molar mass, not a printed value. Calls of active or inactive are those of the source. The rule behind the calls is not given here.
What was measured:
[1] = target: Epidermal growth factor receptor (Homo sapiens, UniProt P00533, L858R/T790M); test: Inhibition of EGFR kinase domain L858R/T790M mutant (unknown origin) expressed using baculovirus expression system incubated for 1 hr using Poly(Glu,Tyr) 4:1 by ELISA method
A-431 [2] = test: Antitumor activity against human A431 cells xenografted in BALB/c mouse assessed as inhibition of tumor growth at 50 mg/kg, po qd for 14 consecutive days; format: functional; conditions: A-431, po, read-out: TGI
[3] = AUC (0 to infinity) in ICR mouse at 1 mg/kg, iv by LC-MS/MS method; format: ADME, organism-based; design: dose 1 mg/kg, route intravenous, time infinity; conditions: in vivo
[4] = target: Epidermal growth factor receptor (Homo sapiens, UniProt P00533); test: Inhibition of wild type EGFR kinase domain (unknown origin) expressed using baculovirus expression system incubated for 1 hr using Poly(Glu,Tyr) 4:1 by ELISA method
Epidermal growth factor receptor (Homo sapiens, UniProt P00533), sequence (P00533 whole entry, the tested form may be a part): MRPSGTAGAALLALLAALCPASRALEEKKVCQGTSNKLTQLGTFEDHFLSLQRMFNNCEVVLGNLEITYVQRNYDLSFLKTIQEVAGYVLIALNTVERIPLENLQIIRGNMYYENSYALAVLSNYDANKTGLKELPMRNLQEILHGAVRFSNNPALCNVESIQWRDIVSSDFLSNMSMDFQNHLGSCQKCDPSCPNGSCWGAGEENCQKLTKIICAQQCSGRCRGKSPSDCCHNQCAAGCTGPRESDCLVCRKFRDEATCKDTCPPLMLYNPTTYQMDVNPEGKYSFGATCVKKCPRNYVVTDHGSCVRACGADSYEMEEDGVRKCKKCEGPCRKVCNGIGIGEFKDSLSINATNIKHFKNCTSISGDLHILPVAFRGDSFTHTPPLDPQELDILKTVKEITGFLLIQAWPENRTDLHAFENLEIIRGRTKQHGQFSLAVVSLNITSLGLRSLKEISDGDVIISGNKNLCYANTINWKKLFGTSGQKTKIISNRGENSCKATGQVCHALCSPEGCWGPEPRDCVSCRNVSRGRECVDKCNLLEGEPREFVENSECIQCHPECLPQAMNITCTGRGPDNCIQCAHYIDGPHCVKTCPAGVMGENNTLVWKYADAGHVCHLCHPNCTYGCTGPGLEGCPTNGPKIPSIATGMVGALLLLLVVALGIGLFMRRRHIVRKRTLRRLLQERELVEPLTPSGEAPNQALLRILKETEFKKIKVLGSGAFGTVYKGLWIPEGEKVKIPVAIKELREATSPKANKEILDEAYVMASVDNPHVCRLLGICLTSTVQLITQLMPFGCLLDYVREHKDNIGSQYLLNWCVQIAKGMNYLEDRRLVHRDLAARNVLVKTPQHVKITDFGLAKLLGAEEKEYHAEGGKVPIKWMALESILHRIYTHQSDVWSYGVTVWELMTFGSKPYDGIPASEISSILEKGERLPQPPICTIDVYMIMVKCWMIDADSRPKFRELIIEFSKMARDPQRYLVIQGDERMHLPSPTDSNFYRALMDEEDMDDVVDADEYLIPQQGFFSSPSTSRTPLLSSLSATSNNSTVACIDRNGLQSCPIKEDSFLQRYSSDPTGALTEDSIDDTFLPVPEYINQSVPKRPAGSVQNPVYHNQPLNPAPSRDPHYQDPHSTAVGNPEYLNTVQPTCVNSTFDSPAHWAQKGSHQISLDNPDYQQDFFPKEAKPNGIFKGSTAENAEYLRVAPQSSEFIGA

Mus musculus = test: Inhibition of EGFR kinase domain L858R/T790M mutant phosphorylation in human NCI-H1975 cells xenografted BALB/c mouse at 50 mg/kg, po qd for 14 consecutive days by Western blot method; format: functional, organism-based
[5] = target: T1, Mitogen-activated protein kinase kinase kinase 6 (Homo sapiens) (UniProt O95382); test: Inhibition of human ASK2 expressed in mammalian system assessed as remaining enzyme activity at 1000 nM relative to untreated control
T1 sequence (whole entry): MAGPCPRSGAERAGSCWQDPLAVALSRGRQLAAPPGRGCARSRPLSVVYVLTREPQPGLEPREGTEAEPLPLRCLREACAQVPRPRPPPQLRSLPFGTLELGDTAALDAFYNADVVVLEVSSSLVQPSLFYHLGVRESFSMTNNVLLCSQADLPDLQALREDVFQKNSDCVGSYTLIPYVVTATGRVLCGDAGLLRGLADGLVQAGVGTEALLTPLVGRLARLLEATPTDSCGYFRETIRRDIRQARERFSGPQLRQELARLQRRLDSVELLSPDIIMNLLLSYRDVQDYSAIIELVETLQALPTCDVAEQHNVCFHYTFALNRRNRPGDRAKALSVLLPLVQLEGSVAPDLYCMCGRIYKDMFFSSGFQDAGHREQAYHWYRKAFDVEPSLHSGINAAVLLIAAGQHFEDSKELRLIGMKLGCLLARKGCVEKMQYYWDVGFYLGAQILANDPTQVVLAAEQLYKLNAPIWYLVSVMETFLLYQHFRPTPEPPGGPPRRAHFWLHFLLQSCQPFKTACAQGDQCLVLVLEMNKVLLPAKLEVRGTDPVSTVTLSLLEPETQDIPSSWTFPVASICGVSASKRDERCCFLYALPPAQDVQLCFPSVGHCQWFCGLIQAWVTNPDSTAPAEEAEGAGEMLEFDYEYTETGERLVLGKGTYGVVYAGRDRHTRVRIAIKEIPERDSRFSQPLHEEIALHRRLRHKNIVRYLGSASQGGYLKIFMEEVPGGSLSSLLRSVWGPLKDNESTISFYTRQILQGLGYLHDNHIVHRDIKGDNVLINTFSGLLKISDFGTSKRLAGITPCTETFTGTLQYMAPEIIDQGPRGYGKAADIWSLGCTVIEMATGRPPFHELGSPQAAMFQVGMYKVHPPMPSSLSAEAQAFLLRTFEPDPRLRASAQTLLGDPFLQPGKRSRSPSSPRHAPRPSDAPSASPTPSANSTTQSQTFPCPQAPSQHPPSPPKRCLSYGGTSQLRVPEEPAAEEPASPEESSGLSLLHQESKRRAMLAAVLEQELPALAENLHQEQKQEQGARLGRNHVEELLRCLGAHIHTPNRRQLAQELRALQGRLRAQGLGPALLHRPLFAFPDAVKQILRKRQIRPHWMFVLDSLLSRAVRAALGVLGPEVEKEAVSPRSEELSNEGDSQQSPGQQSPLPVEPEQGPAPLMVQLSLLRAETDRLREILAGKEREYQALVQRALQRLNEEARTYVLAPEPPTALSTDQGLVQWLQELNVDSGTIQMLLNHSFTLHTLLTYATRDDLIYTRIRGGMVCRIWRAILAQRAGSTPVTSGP

A-431 [6] = test: Antiproliferative activity against human A431 cells incubated for 72 hrs by SRB assay; format: functional, cell-based; conditions: A-431, 72 h
[7] = Thermodynamic solubility of the compound in 0.1M PBS buffer at pH 7.4 by UV-visible spectrophotometry; format: physicochemical; conditions: read-out: Therm_solubility
[8] = Dissociation constant, pKa of the compound by Sirius T3 based assay; format: physicochemical
[9] = Half life in ICR mouse at 1 mg/kg, iv by LC-MS/MS method; format: ADME, organism-based; conditions: in vivo
[10] = target: Calcium/calmodulin-dependent protein kinase type 1 (Homo sapiens) (UniProt Q14012); test: Inhibition of human CAMK1 expressed in bacterial system assessed as remaining enzyme activity at 1000 nM relative to untreated control
Calcium/calmodulin-dependent protein kinase type 1 (Homo sapiens), sequence (Q14012 whole entry, looked up): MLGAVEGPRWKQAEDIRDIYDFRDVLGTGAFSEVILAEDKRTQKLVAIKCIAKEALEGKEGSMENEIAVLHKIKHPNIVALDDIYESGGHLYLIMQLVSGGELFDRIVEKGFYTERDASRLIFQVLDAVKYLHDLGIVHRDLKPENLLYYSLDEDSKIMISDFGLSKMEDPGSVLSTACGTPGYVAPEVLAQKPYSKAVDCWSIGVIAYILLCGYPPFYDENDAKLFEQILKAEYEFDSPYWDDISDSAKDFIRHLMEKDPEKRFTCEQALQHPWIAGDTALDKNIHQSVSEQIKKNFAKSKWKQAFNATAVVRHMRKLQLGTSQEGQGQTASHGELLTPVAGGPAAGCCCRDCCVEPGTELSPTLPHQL

[11] = AUC (0 to t) in ICR mouse at 1 mg/kg, iv by LC-MS/MS method; format: ADME, organism-based; conditions: in vivo
[12] = Cmax in ICR mouse at 1 mg/kg, iv by LC-MS/MS method; format: ADME, organism-based; design: dose 1 mg/kg, route intravenous; conditions: in vivo
[13] = Clearance in ICR mouse at 1 mg/kg, iv by LC-MS/MS method; format: ADME, organism-based; conditions: in vivo

Epidermal growth factor receptor (Homo sapiens, UniProt P00533, L858R/T790M), sequence (P00533 25-1210 T790M/L858R limits assumed): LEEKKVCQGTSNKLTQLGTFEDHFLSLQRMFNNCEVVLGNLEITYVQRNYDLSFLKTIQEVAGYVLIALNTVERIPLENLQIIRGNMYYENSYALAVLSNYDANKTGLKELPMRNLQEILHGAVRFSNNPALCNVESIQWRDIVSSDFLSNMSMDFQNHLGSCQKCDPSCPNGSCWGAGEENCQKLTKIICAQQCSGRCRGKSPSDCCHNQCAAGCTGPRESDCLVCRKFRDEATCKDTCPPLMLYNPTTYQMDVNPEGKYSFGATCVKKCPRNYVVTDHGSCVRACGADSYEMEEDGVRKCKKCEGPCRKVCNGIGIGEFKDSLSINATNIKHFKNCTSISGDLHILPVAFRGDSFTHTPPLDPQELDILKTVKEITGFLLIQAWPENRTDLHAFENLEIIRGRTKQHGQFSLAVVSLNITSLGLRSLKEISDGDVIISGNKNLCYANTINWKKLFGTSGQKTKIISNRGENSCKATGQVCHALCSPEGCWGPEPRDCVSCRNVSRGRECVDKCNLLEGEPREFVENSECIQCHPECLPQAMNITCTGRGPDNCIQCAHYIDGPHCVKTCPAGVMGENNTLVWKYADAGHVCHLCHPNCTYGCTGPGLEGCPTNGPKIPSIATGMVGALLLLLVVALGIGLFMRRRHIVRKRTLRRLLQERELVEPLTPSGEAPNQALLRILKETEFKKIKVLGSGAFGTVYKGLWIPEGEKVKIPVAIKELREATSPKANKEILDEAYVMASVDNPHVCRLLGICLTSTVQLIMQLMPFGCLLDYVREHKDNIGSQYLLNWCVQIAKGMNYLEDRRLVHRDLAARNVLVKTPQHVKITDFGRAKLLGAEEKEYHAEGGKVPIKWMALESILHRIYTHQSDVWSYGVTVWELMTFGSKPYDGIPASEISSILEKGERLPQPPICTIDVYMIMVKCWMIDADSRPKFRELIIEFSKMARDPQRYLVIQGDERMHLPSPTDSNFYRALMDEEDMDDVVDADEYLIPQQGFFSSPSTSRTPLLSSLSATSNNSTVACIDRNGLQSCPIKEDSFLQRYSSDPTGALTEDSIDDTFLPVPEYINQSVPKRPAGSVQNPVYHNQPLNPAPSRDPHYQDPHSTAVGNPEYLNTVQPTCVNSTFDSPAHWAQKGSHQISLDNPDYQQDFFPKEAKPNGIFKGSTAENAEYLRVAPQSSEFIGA

C=CC(=O)Nc1cccc(-n2c(=O)c(=O)n(C(C)C)c3cnc(Nc4ccc(N5CCN(C)CC5)cc4OC)nc32)c1
IC50 [1]: 0.3 nM
inhibition in vivo at 50 mg/kg (A-431 [2]): 50%
AUC(0-inf) [3]: 143 ng·h/mL
IC50 [4]: 2 nM
inhibition (Mus musculus): Active
Activity [5]: < 1%
IC50 (A-431 [6]): 7770 nM
solubility thermodynamic [7]: 41 µg/mL (≈ 71.8 µM)
pKa [8]: 7.7
half-life [9]: 48 min
Activity [10]: < 1%
AUC(0-t) [11]: 140 ng·h/mL
Cmax [12]: 258 ng/mL
clearance [13]: 117 mL/min/kg
